Data taken from BindingDB's records for doi:10.7270/Q2WQ028B (Vanderbilt Screening Center For Gpcrs, Ion Channels and …, 2010).

These compounds were tested against T1, G protein-activated inward rectifier potassium channel 1 (Rattus norvegicus, UniProt P63251) (assay: alpha2C-dependent GIRK activation, antagonist reversal – cell-based, thallium flux, with rauwolscine, mechanism study for alpha2C adrenergic receptor project, dose response (AID 435016)). Settings: inactive by the depositor's call.
T1 sequence (P63251 whole entry): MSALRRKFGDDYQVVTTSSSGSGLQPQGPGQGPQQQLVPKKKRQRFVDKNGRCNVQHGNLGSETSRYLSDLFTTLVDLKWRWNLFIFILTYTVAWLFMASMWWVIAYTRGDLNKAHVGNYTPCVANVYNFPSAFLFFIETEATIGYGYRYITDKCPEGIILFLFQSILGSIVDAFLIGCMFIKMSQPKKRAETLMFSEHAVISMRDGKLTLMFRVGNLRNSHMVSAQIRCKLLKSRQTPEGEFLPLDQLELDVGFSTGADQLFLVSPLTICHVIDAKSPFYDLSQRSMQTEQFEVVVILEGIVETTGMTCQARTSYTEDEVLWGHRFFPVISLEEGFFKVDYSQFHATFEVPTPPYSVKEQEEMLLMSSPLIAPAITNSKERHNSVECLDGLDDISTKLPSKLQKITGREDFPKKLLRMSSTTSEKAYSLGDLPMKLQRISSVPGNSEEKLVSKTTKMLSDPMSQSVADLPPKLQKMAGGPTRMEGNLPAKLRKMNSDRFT

Question: With CCOC(=O)c1ccc(NC(=O)NC(C)C2CCCO2)cc1 (stereo not drawn) as the compound, how does the EC50 read?
Answer: 41.4 µM

Question: With CCSc1nnc(NC(=O)NC(CC)(C(F)(F)F)C(F)(F)F)s1 [1-(5-ethylsulfanyl-1,3,4-thiadiazol-2-yl)-3-[1,1,1-trifluoro-2-(trifluoromethyl)butan-2-yl]urea] as the compound, how does the EC50 read?
Answer: 2.29 µM

Question: O=c1c(-c2ccc3c(c2)OCCO3)c(C(F)(F)F)oc2cc(O)cc(O)c12 [3-(2,3-dihydro-1,4-benzodioxin-6-yl)-5,7-bis(oxidanyl)-2-(trifluoromethyl)chromen-4-one] was tested. Which EC50 did it give?
Answer: 12.6 µM
